Patent publication US7964531B2, “3-phenoxy-4-pyridazinol derivatives and herbicidal composition containing the same” (Mitsui Chemicals Agro, Inc., priority 2001, dated 2011)

Columns and labels:
Assay type in all cases: in vivo
Settings in all cases: wettable powder applied 3 days after transplanting, judged after 25 days
[1] = tested on: transplanted paddy-field rice; assay: Test Example 1: crop injury against transplanted paddy-field rice
In short: (§1)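 Herbicidal effect and crop injury were rated 0 (0-10% inhibition) to 5 (91-100%) 25 days after treatment. Water-diluted wettable powder was applied to flooded greenhouse pots 3 days after transplanting 2.2-leaf rice. The pots held seeded weeds and sprouted Cyperus serotinus tubers.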

Scirpus joncoides = assay: Test Example 1: herbicidal effects, paddy-field pot test
In short: as §1

[2] = tested on: annual broad-leaved weeds (Lindernia spp., Rotala indica); assay: as above
In short: as §1

[3] = tested on: barnyardgrass (Echinochloa oryzicola Vasing.); assay: as above
In short: as §1

Cyperus serotinus = assay: as above
In short: as §1

Compound | Crop injury against transplanted rice ([1]; chemical dosage 10 g/a) | Crop injury against transplanted rice ([1]; chemical dosage 20 g/a) | Herbicidal effects Scirpus joncoides (Scirpus joncoides; chemical dosage 10 g/a) | Herbicidal effects Scirpus joncoides (Scirpus joncoides; chemical dosage 20 g/a) | Herbicidal effects Broad leaf ([2]; chemical dosage 10 g/a) | Herbicidal effects Broad leaf ([2]; chemical dosage 20 g/a) | Herbicidal effects Barnyard grass ([3]; chemical dosage 10 g/a) | Herbicidal effects Barnyard grass ([3]; chemical dosage 20 g/a) | Herbicidal effects Cyperus serotinus (Cyperus serotinus; chemical dosage 10 g/a) | Herbicidal effects Cyperus serotinus (Cyperus serotinus; chemical dosage 20 g/a) | further results
CCCS(=O)(=O)Oc1cc(Cl)nnc1Oc1cccc2c1CCC2 [Example 361] | 0 (Growth inhibition rate; 0 to 10%) | 0 (Growth inhibition rate; 0 to 10%) | 5 (Growth inhibition rate; 91 to 100%) | 5 (Growth inhibition rate; 91 to 100%) | 5 (Growth inhibition rate; 91 to 100%) | 5 (Growth inhibition rate; 91 to 100%) | 2 (Growth inhibition rate; 31 to 50%) | 3 (Growth inhibition rate; 51 to 70%) | 4 (Growth inhibition rate; 71 to 90%) | 5 (Growth inhibition rate; 91 to 100%) | –
CCCS(=O)(=O)Oc1cc(Cl)nnc1Oc1ccccc1C [Example 359] | 0 (Growth inhibition rate; 0 to 10%) | 0 (Growth inhibition rate; 0 to 10%) | 3 (Growth inhibition rate; 51 to 70%) | 4 (Growth inhibition rate; 71 to 90%) | 3 (Growth inhibition rate; 51 to 70%) | 5 (Growth inhibition rate; 91 to 100%) | 4 (Growth inhibition rate; 71 to 90%) | 5 (Growth inhibition rate; 91 to 100%) | 5 (Growth inhibition rate; 91 to 100%) | 5 (Growth inhibition rate; 91 to 100%) | –
CCOc1ccccc1Oc1nnc(Cl)cc1O [Example 122] | 0 (Growth inhibition rate; 0 to 10%) | 0 (Growth inhibition rate; 0 to 10%) | 4 (Growth inhibition rate; 71 to 90%) | 5 (Growth inhibition rate; 91 to 100%) | 5 (Growth inhibition rate; 91 to 100%) | 5 (Growth inhibition rate; 91 to 100%) | 0 (Growth inhibition rate; 0 to 10%) | 0 (Growth inhibition rate; 0 to 10%) | 5 (Growth inhibition rate; 91 to 100%) | 5 (Growth inhibition rate; 91 to 100%) | –
Cc1ccc(C)c(Oc2nnc(Cl)cc2O)c1Br [Example 290] | 0 (Growth inhibition rate; 0 to 10%) | – | 4 (Growth inhibition rate; 71 to 90%) | – | 5 (Growth inhibition rate; 91 to 100%) | – | 0 (Growth inhibition rate; 0 to 10%) | – | 5 (Growth inhibition rate; 91 to 100%) | – | –
Oc1cc(Cl)nnc1Oc1cccc2c1CCO2 [Example 181] | 0 (Growth inhibition rate; 0 to 10%) | 0 (Growth inhibition rate; 0 to 10%) | 3 (Growth inhibition rate; 51 to 70%) | 4 (Growth inhibition rate; 71 to 90%) | 5 (Growth inhibition rate; 91 to 100%) | 5 (Growth inhibition rate; 91 to 100%) | 1 (Growth inhibition rate; 11 to 30%) | 2 (Growth inhibition rate; 31 to 50%) | 4 (Growth inhibition rate; 71 to 90%) | 5 (Growth inhibition rate; 91 to 100%) | –
Oc1cc(Cl)nnc1Oc1cccc2sccc12 [Example 185] | – | – | – | – | – | – | – | – | – | – | Crop injury against transplanted rice ([1]; chemical dosage 5 g/a): 0 (Growth inhibition rate; 0 to 10%); Herbicidal effects Scirpus joncoides (Scirpus joncoides; chemical dosage 5 g/a): 2 (Growth inhibition rate; 31 to 50%); Herbicidal effects Broad leaf ([2]; chemical dosage 5 g/a): 3 (Growth inhibition rate; 51 to 70%); Herbicidal effects Barnyard grass ([3]; chemical dosage 5 g/a): 1 (Growth inhibition rate; 11 to 30%); Herbicidal effects Cyperus serotinus (Cyperus serotinus; chemical dosage 5 g/a): 3 (Growth inhibition rate; 51 to 70%)
O=S(=O)(Oc1cc(Cl)nnc1Oc1ccccc1C1CC1)C(F)(F)F [Example 26] | 0 (Growth inhibition rate; 0 to 10%) | 0 (Growth inhibition rate; 0 to 10%) | 5 (Growth inhibition rate; 91 to 100%) | 5 (Growth inhibition rate; 91 to 100%) | 5 (Growth inhibition rate; 91 to 100%) | 5 (Growth inhibition rate; 91 to 100%) | 4 (Growth inhibition rate; 71 to 90%) | 4 (Growth inhibition rate; 71 to 90%) | 5 (Growth inhibition rate; 91 to 100%) | 5 (Growth inhibition rate; 91 to 100%) | –
Oc1cc(Cl)nnc1Oc1cccc2c1OCC2 [Example 189] | 3 (Growth inhibition rate; 51 to 70%) | – | 5 (Growth inhibition rate; 91 to 100%) | – | 5 (Growth inhibition rate; 91 to 100%) | – | 3 (Growth inhibition rate; 51 to 70%) | – | 5 (Growth inhibition rate; 91 to 100%) | – | Crop injury against transplanted rice ([1]; chemical dosage 5 g/a): 0 (Growth inhibition rate; 0 to 10%); Herbicidal effects Scirpus joncoides (Scirpus joncoides; chemical dosage 5 g/a): 4 (Growth inhibition rate; 71 to 90%); Herbicidal effects Broad leaf ([2]; chemical dosage 5 g/a): 5 (Growth inhibition rate; 91 to 100%); Herbicidal effects Barnyard grass ([3]; chemical dosage 5 g/a): 2 (Growth inhibition rate; 31 to 50%); Herbicidal effects Cyperus serotinus (Cyperus serotinus; chemical dosage 5 g/a): 5 (Growth inhibition rate; 91 to 100%)
Cc1cc(C)c(Br)c(Oc2nnc(Cl)cc2O)c1 [Example 285] | 0 (Growth inhibition rate; 0 to 10%) | 0 (Growth inhibition rate; 0 to 10%) | 4 (Growth inhibition rate; 71 to 90%) | 5 (Growth inhibition rate; 91 to 100%) | 5 (Growth inhibition rate; 91 to 100%) | 5 (Growth inhibition rate; 91 to 100%) | 0 (Growth inhibition rate; 0 to 10%) | 0 (Growth inhibition rate; 0 to 10%) | 2 (Growth inhibition rate; 31 to 50%) | 3 (Growth inhibition rate; 51 to 70%) | –
CSCc1c(C)ccc(C)c1Oc1nnc(Cl)cc1O [Example 303] | – | – | – | – | – | – | – | – | – | – | Crop injury against transplanted rice ([1]; chemical dosage 12.5 g/a): 0 (Growth inhibition rate; 0 to 10%); Crop injury against transplanted rice ([1]; chemical dosage 25 g/a): 0 (Growth inhibition rate; 0 to 10%); Herbicidal effects Scirpus joncoides (Scirpus joncoides; chemical dosage 12.5 g/a): 3 (Growth inhibition rate; 51 to 70%); Herbicidal effects Scirpus joncoides (Scirpus joncoides; chemical dosage 25 g/a): 4 (Growth inhibition rate; 71 to 90%); Herbicidal effects Broad leaf ([2]; chemical dosage 12.5 g/a): 3 (Growth inhibition rate; 51 to 70%); Herbicidal effects Broad leaf ([2]; chemical dosage 25 g/a): 4 (Growth inhibition rate; 71 to 90%); Herbicidal effects Barnyard grass ([3]; chemical dosage 12.5 g/a): 0 (Growth inhibition rate; 0 to 10%); Herbicidal effects Barnyard grass ([3]; chemical dosage 25 g/a): 1 (Growth inhibition rate; 11 to 30%); Herbicidal effects Cyperus serotinus (Cyperus serotinus; chemical dosage 12.5 g/a): 5 (Growth inhibition rate; 91 to 100%); Herbicidal effects Cyperus serotinus (Cyperus serotinus; chemical dosage 25 g/a): 5 (Growth inhibition rate; 91 to 100%)
CC1CC1c1ccccc1Oc1nnc(Cl)cc1O (centres unmarked) [Example 72] | 0 (Growth inhibition rate; 0 to 10%) | 0 (Growth inhibition rate; 0 to 10%) | 5 (Growth inhibition rate; 91 to 100%) | 5 (Growth inhibition rate; 91 to 100%) | 5 (Growth inhibition rate; 91 to 100%) | 5 (Growth inhibition rate; 91 to 100%) | 3 (Growth inhibition rate; 51 to 70%) | 3 (Growth inhibition rate; 51 to 70%) | 4 (Growth inhibition rate; 71 to 90%) | 5 (Growth inhibition rate; 91 to 100%) | –
Cc1coc2cccc(Oc3nnc(Cl)cc3O)c12 [Example 184] | – | 0 (Growth inhibition rate; 0 to 10%) | – | 4 (Growth inhibition rate; 71 to 90%) | – | 5 (Growth inhibition rate; 91 to 100%) | – | 0 (Growth inhibition rate; 0 to 10%) | – | 5 (Growth inhibition rate; 91 to 100%) | –
Oc1cc(Cl)nnc1Oc1c(F)cccc1Br [Example 233] | 0 (Growth inhibition rate; 0 to 10%) | 0 (Growth inhibition rate; 0 to 10%) | 3 (Growth inhibition rate; 51 to 70%) | 5 (Growth inhibition rate; 91 to 100%) | 4 (Growth inhibition rate; 71 to 90%) | 5 (Growth inhibition rate; 91 to 100%) | 3 (Growth inhibition rate; 51 to 70%) | 4 (Growth inhibition rate; 71 to 90%) | 4 (Growth inhibition rate; 71 to 90%) | 5 (Growth inhibition rate; 91 to 100%) | –
Cc1ccc(C)c(Oc2nnc(Cl)cc2O)c1C [Example 295] | – | – | – | – | – | – | – | – | – | – | Crop injury against transplanted rice ([1]; chemical dosage 12.5 g/a): 0 (Growth inhibition rate; 0 to 10%); Crop injury against transplanted rice ([1]; chemical dosage 25 g/a): 0 (Growth inhibition rate; 0 to 10%); Herbicidal effects Scirpus joncoides (Scirpus joncoides; chemical dosage 12.5 g/a): 5 (Growth inhibition rate; 91 to 100%); Herbicidal effects Scirpus joncoides (Scirpus joncoides; chemical dosage 25 g/a): 5 (Growth inhibition rate; 91 to 100%); Herbicidal effects Broad leaf ([2]; chemical dosage 12.5 g/a): 5 (Growth inhibition rate; 91 to 100%); Herbicidal effects Broad leaf ([2]; chemical dosage 25 g/a): 5 (Growth inhibition rate; 91 to 100%); Herbicidal effects Barnyard grass ([3]; chemical dosage 12.5 g/a): 0 (Growth inhibition rate; 0 to 10%); Herbicidal effects Barnyard grass ([3]; chemical dosage 25 g/a): 1 (Growth inhibition rate; 11 to 30%); Herbicidal effects Cyperus serotinus (Cyperus serotinus; chemical dosage 12.5 g/a): 5 (Growth inhibition rate; 91 to 100%); Herbicidal effects Cyperus serotinus (Cyperus serotinus; chemical dosage 25 g/a): 5 (Growth inhibition rate; 91 to 100%)
